The values that follow come from patent US12351574B2, “Selective ligands for modulation of GIRK channels” (Northeastern University, priority 2018, dated 2025).

In the assay the target is T1, GIRK1/4(V-I) (Homo sapiens, UniProt P48544+P48549, V92I).
T1 construct: expressed in transfected cells; host or cells: Xenopus laevis oocytes (cRNA injection)
T1 sequence (P48549 1-501): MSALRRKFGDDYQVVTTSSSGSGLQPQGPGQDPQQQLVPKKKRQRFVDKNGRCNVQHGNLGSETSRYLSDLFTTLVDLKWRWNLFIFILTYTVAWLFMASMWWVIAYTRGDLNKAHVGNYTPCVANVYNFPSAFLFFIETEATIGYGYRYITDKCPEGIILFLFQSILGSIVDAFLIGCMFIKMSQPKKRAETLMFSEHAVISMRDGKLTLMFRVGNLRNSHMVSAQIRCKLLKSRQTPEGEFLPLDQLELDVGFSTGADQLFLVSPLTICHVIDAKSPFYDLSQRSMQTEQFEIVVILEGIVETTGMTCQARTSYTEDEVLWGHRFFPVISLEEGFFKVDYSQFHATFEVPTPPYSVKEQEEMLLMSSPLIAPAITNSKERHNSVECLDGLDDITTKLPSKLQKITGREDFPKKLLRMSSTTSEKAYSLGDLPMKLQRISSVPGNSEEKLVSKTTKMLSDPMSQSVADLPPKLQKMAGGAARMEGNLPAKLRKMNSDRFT
T1 sequence (P48544 1-419 V92I): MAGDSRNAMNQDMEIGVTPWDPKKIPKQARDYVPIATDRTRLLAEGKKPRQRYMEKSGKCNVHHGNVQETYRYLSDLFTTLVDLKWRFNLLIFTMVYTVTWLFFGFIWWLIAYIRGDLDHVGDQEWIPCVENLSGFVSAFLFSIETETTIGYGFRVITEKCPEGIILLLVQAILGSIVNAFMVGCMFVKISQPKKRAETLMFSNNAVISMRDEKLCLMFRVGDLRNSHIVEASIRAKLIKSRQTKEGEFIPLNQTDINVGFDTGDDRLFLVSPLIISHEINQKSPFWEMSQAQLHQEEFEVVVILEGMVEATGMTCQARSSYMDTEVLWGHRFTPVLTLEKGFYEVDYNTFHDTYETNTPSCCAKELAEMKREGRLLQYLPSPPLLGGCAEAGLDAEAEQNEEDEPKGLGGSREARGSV
Description: TEVC in Xenopus oocytes, single mutant GIRK1/4(V-I). It is filed as cell-based. Conditions: GIRK1/4(V-I) single mutant. From the text:
Molecular biology: For Xenopus oocyte expression, human GIRK1 and human GIRK4 cDNAs were subcloned into pGEMHE. For mammalian expression, human GIRK1 and human GIRK4 cDNAs were subcloned into pcDNA3 and pcDNA3.1/V5-His B, respectively (Invitrogen). Mouse GIRK2 cDNA was subcloned in the dual-function vector, pXoom. Point mutations were introduced using a standard Pfu-based mutagenesis technique according to the QuikChange protocol (Agilent). Mutations were verified by sequencing.
Electrophysiology of oocytes: Whole-oocyte currents were measured by conventional two-electrode voltage clamp (TEVC) with a GeneClamp 500 amplifier (Axon Instruments). Agarose cushion microelectrodes were filled with 1.5% (w/v) agarose in 3 M KCl and were used with resistances between 0.1 and 1.5 megaohms. […] Barium-sensitive basal currents from both groups, 1) Vehicle, 2) single concentration at 10 μM and 3) multiple concentrations of ML297 or GAT compounds in the presence of HK solution, were assessed at −80 mV using TEVC. Barium-sensitive currents were normalized to average basal current in the vehicle solutions. The HK solution contained the following: 96 mM KCl, 1 mM NaCl, 1 mM MgCl2, 5 mM KOH/HEPES, pH 7.4. The barium solution consisted of HK+10 mM BaCl2. Five to ten oocytes from the same batch (same frog) were recorded for each group, and the experiments were repeated in at least four batches. Data acquisition and analysis were carried out using pClamp9 (Molecular Devices) and OriginPro (Microcal) software.
To test these computational predictions, the inventors mutated each or both of the two M1 key wild-type GIRK4 subunit residues to the corresponding GIRK2 residues (GIRK4-V92I, GIRK4-T94V, GIRK4-V92I/T94V or GIRK4-dm) and vice-versa the GIRK2 residues to the corresponding GIRK4 ones (GIRK2-I97V, GIRK2-V99T, GIRK2-I97V/V99T or GIRK2-dm) (FIG. 35). […]

`Cc1cc(NC(=O)Nc2ccc(Br)s2)n(-c2ccccc2)n1` [GAT1508, 1-(5-bromothiophen-2-yl)-3-(3-methyl-1-phenyl-1H-pyrazol-5-yl)urea] yielded a concentration giving a half-maximal response (EC50) of 530 ± 150 nM and an EMAX of 1.29±0.03. Also, the Emax (read-out: EMAX, % of the control GIRK1/2) worked out at 11%.

By EC50 is commonly meant the concentration giving half of the maximal effect. A lower EC50 goes with an effect from little substance.
